The test system of data set [1] is 3T3 (mouse fibroblast) cell line. Briefly: MTT cytotoxicity assay. It counts as cell-based. The method, then: (§1) Cytotoxicity of active compounds were evaluated employing a standard MTT calorimetric assay. Mouse fibroblast (3T3 cell line) acquired from American Type Culture Collection (ATCC), Virginia, USA, was cultured in DMEM (Dulbecco’s modified eagle medium). In total, 5% FBS (fetal bovine serum), penicillin (100 IU/mL), and streptomycin ([…]) were then added to the medium in […] flasks, and kept in a CO2 incubator at 37 °C. The harvested cell was then diluted with a specific medium. Haemocytometer was used for the quantification of cells. After that, the culture of cell having concentration of 5x104 (cells/mL) was prepared, inoculated into 96-well plates (100 µL/well), and then incubated overnight. After incubation, the old medium was removed, and fresh medium (200 µL) was added. Then different concentrations of test compounds (ranging from 1 to 30 µM) were added. After incubation of 48 h, each well received 200 µL of MTT dye (0.5 mg/mL), and further incubated for a duration of 4 h. After 4 h, 100 µL of DMSO was introduced into each well of the 96-well plate. The reduction of MTT to formazan was measured by recording absorbance at 540 nm with the help of a microplate reader (SpectraMax 384, Molecular Devices, San Jose, CA, USA).
In general terms: Formazan colour is commonly taken as a measure of viable cells.

A short description of the next data set: MTT cytotoxicity assay. In kind it is cell-based. Particulars: 3T3 mouse fibroblast cells, 48 h, test compounds 1 to 30 µM, NC: non-cytotoxic, read-out: Cytotoxicity Studies Cell Viability (%). The method, then: as §1
For data set [2], the target named is T1, Thymidine phosphorylase (TP) (Escherichia coli, UniProt P07650).
T1 construct: purchased Sigma Aldrich, USA
As to the kind of experiment: Thymidine phosphorylase inhibition assay (spectrophotometric, 290 nm). It counts as biochemical, E. coli. Particulars: for IC50: E. coli TP, n = 3, NA: not active, read-out: Thymidine Phosphorylase Inhibitory Activity IC50 ± SEM; for inhibition at 500 µM: pH 7, E. coli TP, test compound 10 µL of 0.5 mM in 200 µL, thymidine substrate, 30 °C, pH 7.0, read-out: Thymidine Phosphorylase Inhibitory Activity % Inhibition. As for the experimental part:
Thymidine phosphorylase (source: E. coli, EC Number 2.4.2.4), thymidine (substrate), and potassium phosphate monobasic (as buffer) were acquired from Sigma Aldrich, USA. […] Dimethylsulfoxide (DMSO), used as a solvent, was obtained from Fisher Scientific, Schwerte, Germany.
Reaction was performed in 96-well plates and in triplicates. The 200 µL reaction mixture was comprised of 10 µL of the test compound (0.5 mM; dissolved in DMSO), 150 µL of potassium phosphate buffer (pH 7.0, 50 mM), and 20 µL of TP enzyme (0.058 unit/well). The 96-well plate containing all these reagents was then incubated at 30 °C for 10 min.
SoftMax Pro 4.8 software (Molecular Devices, San Jose, CA, USA) was used to analyse the results.
(§2) EZ-FIT, enzyme kinetics software (Perrella Scientific, Inc., Amherst, GA, USA) was used to calculate the IC50 values. In order to analyse the kinetic parameter, Grafit version 7.0 (Erithacus Software Ltd., Horley, UK) was used.

Data set [3] has as its target T1, Thymidine phosphorylase (TP). Briefly: Mechanistic (kinetic) studies of TP inhibition. It counts as biochemical. The conditions noted are these: E. coli TP; for Type of Inhibition: Lineweaver–Burk, Dixon plots; for Ki: inhibitor 200–500 µM, thymidine 0.1875–1.5 mM, read-out: Ki ± SEM.
Description: Kinetic studies are used for the investigation of chemical reactions in terms of their reaction rates, reaction mechanisms, and the factors that affect these parameters. Herein, it is used determine the type/mechanism of inhibition of dihydropyrimidone derivatives.
as §2

Another data set has as its system E. coli TP. Also noted: method as in earlier work. Particulars: read-out: 50% inhibitory concentration (IC50); purified E. coli TP; conversion of dThd to Thy; ref [5]; cited from earlier work.

This is an account of results in PMC10143232, “Dihydropyrimidone Derivatives as Thymidine Phosphorylase Inhibitors: Inhibition Kinetics, Cytotoxicity, and Molecular Docking” (Molecules, 2023).

“Also recorded” adds a separate entry of the source.

The viability is a read-out of living cells in per cent, often relative to untreated cells. Broadly, the inhibition is how much of the control response was suppressed. One may read the Ki as the dissociation constant of the complex between target and ligand, obtained from inhibition or displacement.

T1 sequence (P07650 whole entry): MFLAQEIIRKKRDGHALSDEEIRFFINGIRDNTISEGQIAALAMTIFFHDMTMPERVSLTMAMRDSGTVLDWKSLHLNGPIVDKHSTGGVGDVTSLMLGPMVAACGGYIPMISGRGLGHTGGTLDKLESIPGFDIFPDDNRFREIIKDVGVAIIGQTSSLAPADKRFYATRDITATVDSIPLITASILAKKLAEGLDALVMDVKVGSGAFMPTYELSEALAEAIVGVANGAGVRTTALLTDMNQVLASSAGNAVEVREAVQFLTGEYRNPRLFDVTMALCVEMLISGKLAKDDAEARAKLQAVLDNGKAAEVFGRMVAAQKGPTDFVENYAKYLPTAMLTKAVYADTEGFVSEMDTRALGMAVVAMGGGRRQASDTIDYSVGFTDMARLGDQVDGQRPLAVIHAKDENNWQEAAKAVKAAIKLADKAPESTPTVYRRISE

`COC(=O)C1=C(C)NC(=O)NC1c1ccccc1` (stereo not shown) [Compound 1, Methyl 6-methyl-2-oxo-4-phenyl-1,2,3,4-tetrahydropyrimidine-5-carboxylate]: in data set [1], the “Cytotoxicity against 3T3 cells (in words)” value (“Cytotoxicity” below) was “non-cytotoxic; also recorded: non-toxic”. Further, the viability at 48 h in the data set “MTT cytotoxicity assay” was 57%. Further, in data set [2], the IC50 was determined as 314.3 ± 0.9 µM and the inhibition at 500 µM is 84%. Further, in data set [3], the “Type of Inhibition” value is on record as “Non-Competitive” and the Ki was 326.3 ± 0.002 µM.

As to `COC(=O)C1=C(C)NC(=O)NC1c1ccc([N+](=O)[O-])cc1` (stereo not shown) [Compound 12, Methyl 6-methyl-4-(4-nitrophenyl)-2-oxo-1,2,3,4-tetrahydropyrimidine-5-carboxylate], the “Cytotoxicity” value in data set [1] was “non-cytotoxic; also recorded: non-toxic”. Moreover, in the data set “MTT cytotoxicity assay”, the viability at 48 h amounted to 57%. Further, in data set [2], the IC50 worked out at 303.5 ± 0.4 µM and the inhibition at 500 µM amounted to 91.5%. For the same compound, in data set [3], the “Type of Inhibition” value was “Non-Competitive” and the Ki amounted to 297.6 ± 0.006 µM.

As to `COC(=O)C1=C(C)NC(=O)NC1c1ccc(C(F)(F)F)cc1` (stereo not shown) [Compound 33, Methyl 6-methyl-2-oxo-4-(4-(trifluoromethyl)phenyl)-1,2,3,4-tetrahydropyrimidine-5-carboxylate], the “Cytotoxicity” value in data set [1] is given as “non-cytotoxic; also recorded: non-toxic”. In addition, the viability at 48 h in the data set “MTT cytotoxicity assay” was found to be 61%. In data set [2], the IC50 worked out at 322.6 ± 1.6 µM and the inhibition at 500 µM is 73.6%. In addition, in data set [3], the “Type of Inhibition” value is “Non-Competitive” and the Ki was found to be 311.4 ± 0.004 µM.

As for `Oc1ncnc2c1ncn2[C@@H]1O[C@H](COC(c2ccccc2)(c2ccccc2)c2ccccc2)[C@@H](O)[C@H]1O` [KIN59, 5′-O-tritylinosine], the IC50 in the data set with E. coli TP is 44 ± 3 µM.
